Values joined by “and” are separate entries in the source; they are usually repeats but may differ in a detail not shown here. Equal values may be shown once. Read-outs that look alike come from different tables or passages of the source.
Test system: chloroquine-resistant K1 strain of P. falciparum
Test: 48-h sensitivity assay, [3H]-hypoxanthine incorporation as an assessment of parasite growth
Format: cell-based
Procedure: The antimalarial activity of the new dimers was tested against the chloroquine-resistant K1 strain of P. falciparum. A single uncloned K1, chloroquine resistant strain of P. falciparum from Thailand was used. Parasites were maintained in continuous culture using the method of Trager and Jenson. (J. Parasitol, 1977, 63, […]). Cultures were grown in flasks containing human erythrocytes (2-5%) with parasitemia in the range of 1% to 10% suspended in RPMI 1640 medium supplemented with 25 mM HEPES and 32 mM NaHCO3, and 10% human serum (complete medium). Cultures were gassed with a mixture of 3% O2, 4% CO2 and 93% N2.
Antimalarial activity was assessed with an adaption of the 48-h sensitivity assay of Desjardins et al. (Antimicrob. Agents. Chemother., 1979, 16, 710-718) using [^3H]-hypoxanthine incorporation as an assessment of parasite growth. Stock drug solutions were prepared in 100% dimethylsulphoxide (DMSO) and diluted to the appropriate concentration using complete medium. Assays were performed in sterile 96-well microtitre plates, each plate containing 200 μl of parasite culture (2% parasitemia, 0.5% haematocrit) with or without 10 μl drug dilutions. Each drag was tested in triplicate and parasite growth was compared to control wells (which constituted 100% parasite growth). After 24-h incubation at 37° C., 0.5 μCi hypoxanthine was added to each well. Cultures were incubated for a further 24 h before they were harvested onto filter-mats, dried for 1 h at 55° C. and counted using a Wallac 1450 Microbeta Trilux Liquid scintillation and luminescence counter. IC50 values were calculated by interpolation of the probit transformation of the log dose—response curve.

[1] = Plasmodium falciparum, K1, 48 h, mean of the determinations, K1 strain, 48 h, read-out: Mean IC50
[2] = single determinations (triplicate), K1 strain, 48 h, read-out: IC50
[3] = mean of the determinations, K1 strain, 48 h, read-out: Mean IC50

Molecule	IC50 [2]	IC50 [3] [nM]	other results
CCN(CC)CCCC(C)Nc1ccnc2cc(Cl)ccc12 (stereo not shown) [Chloroquine, chloroquine, reference compound]	–	–	IC50 (Plasmodium falciparum, K1, 48 h): 190 nM; IC50 (Plasmodium falciparum, K1, 48 h, read-out: Mean IC50): 190 nM
CO[C@H]1O[C@@H]2O[C@@]3(C)CC[C@H]4[C@H](C)CC[C@@H]([C@H]1C)[C@@]24OO3 [Artemether, artemether, reference compound]	2 nM	–	IC50 [1]: 2.8 nM
C[C@H]1[C@@H](CCOCc2ccc(COCC[C@H]3O[C@@H]4O[C@]5(C)CC[C@H]6[C@H](C)CC[C@@H]([C@H]3C)[C@@]46OO5)cc2)O[C@@H]2O[C@]3(C)CC[C@H]4[C@H](C)CC[C@@H]1[C@@]24OO3 [PV41]	2.6 nM and 3.1 nM and 1.6 nM	2.4	–
CC1CCC2C(C)C(CCOP(=O)(OCCC3OC4OC5(C)CCC6C(C)CCC(C3C)C46OO5)Oc3ccccc3)OC3OC4(C)CCC1C32OO4 (stereo not shown) [PV37]	–	0.5	–
C[C@@H]1CC[C@H]2[C@@H](C)C(=O)O[C@@H]3O[C@@]4(C)CC[C@@H]1[C@]32OO4 [Artemisinin, reference compound]	–	–	IC50 [1]: 12.3 nM; IC50 (Plasmodium falciparum, K1, 48 h, single determinations (triplicate), K1 strain, 48 h, read-out: IC50): 12.3 nM
C[C@H]1[C@@H](CCOCc2cccc(COCC[C@H]3O[C@@H]4O[C@]5(C)CC[C@H]6[C@H](C)CC[C@@H]([C@H]3C)[C@@]46OO5)c2)O[C@@H]2O[C@]3(C)CC[C@H]4[C@H](C)CC[C@@H]1[C@@]24OO3 [PV43]	–	2.9	–
C[C@H]1[C@@H](CCOC(=O)c2cccc(C(=O)OCC[C@H]3O[C@@H]4O[C@]5(C)CC[C@H]6[C@H](C)CC[C@@H]([C@H]3C)[C@@]46OO5)c2)O[C@@H]2O[C@]3(C)CC[C@H]4[C@H](C)CC[C@@H]1[C@@]24OO3 [PV31, 10β-(2-hydroxyethyl)-deoxoartemisininbis-ester(1,3)-dimer]	39.9 nM and 43.3 nM	42.2	–
10β-(2-Hydroxyethyl)-deoxoartemisinin bis-ester (1,2)-dimer [PV30]	–	2.6	–
C[C@H]1[C@@H](CCOC(=O)CCC(=O)OCC[C@H]2O[C@@H]3O[C@]4(C)CC[C@H]5[C@H](C)CC[C@@H]([C@H]2C)[C@@]35OO4)O[C@@H]2O[C@]3(C)CC[C@H]4[C@H](C)CC[C@@H]1[C@@]24OO3 [PV33]	–	1.8	–
C[C@H]1[C@@H](CCOC(=O)c2ccc(C(=O)OCC[C@H]3O[C@@H]4O[C@]5(C)CC[C@H]6[C@H](C)CC[C@@H]([C@H]3C)[C@@]46OO5)cc2)O[C@@H]2O[C@]3(C)CC[C@H]4[C@H](C)CC[C@@H]1[C@@]24OO3 [PV32, 10-β-(2-Hydroxyethyl)-deoxoartemisinin bis-ester(1,4)-dimer]	5.5 nM and 5.2 nM and 3 nM	4.6	–
C[C@H]1[C@@H](CCOCc2ccccc2COCC[C@H]2O[C@@H]3O[C@]4(C)CC[C@H]5[C@H](C)CC[C@@H]([C@H]2C)[C@@]35OO4)O[C@@H]2O[C@]3(C)CC[C@H]4[C@H](C)CC[C@@H]1[C@@]24OO3 [PV45]	–	2.7	–
CC1CCC2C(C)C(CCOC(=O)CCCC(=O)OCCC3OC4OC5(C)CCC6C(C)CCC(C3C)C46OO5)OC3OC4(C)CCC1C32OO4 (stereo not shown) [PV35]	2.6 nM and 3.1 nM and 1.6 nM	2.4	–
